In patent publication US20190100534A1, “Cephem Compounds with Latent Reactive Groups” (Gladius Pharmaceuticals, Inc., priority 2017, published 2019):

Experiments:
Assay in all cases: MIC determination, isogenic E. coli strains
Assay type in all cases: cell-based
[1] = system: Isogenic E. coli J58 strain carrying KPC-3; details: for MIC: Escherichia coli, 18 h, read-out: Mimimum Inhibitory Concentrations, KPC-3
Experimental: (§1) Sterile technique was used throughout these experiments. Suspensions of organisms were removed from storage (−80° C.) and partially thawed. Partially thawed organisms (1 μL) were inoculated into 3 mL sterile LB Broth in a sterile culture tube and capped, then cultured at 37° C. with shaking for 4-5 hours until the optical density at 600 nm (OD600) was greater than 0.1 on a single beam spectrophotometer.
(§2) The concentration of organisms was adjusted to 0.08-0.1 OD600 (0.5 McFarland units) by dilution with sterile cation-adjusted Meuller-Hinton (CAMH) broth. The suspensions were used within 30 minutes of preparation.
(§3) A stock solution was made of each test compound by measuring 6.4 mg of the compound on an analytical balance and dissolving it in DMSO (1 mL) to get a transparent solution. The solutions were stored at −20° C. and thawed prior to use.
(§4) Sterile CAMH broth (200 μL) containing 20 μM Apo-Transferrin was pipetted into the first row of 8 columns of a sterile, round-bottomed, transparent, 96-well microplate using an 8-channel pipette equipped with sterile tips. One hundred μL was pipetted into the wells of the remaining 11 rows.
(§5) With an 8-channel pipette equipped with sterile tips, 100 μL of the first row solution was transferred to the second row and mixed. The process was repeated for the second to third rows and continued through row 11. One hundred μL from row 11 was removed and discarded so that all 12 rows contained 100 μL. Row 12 contained no compound and rows 1-11 contained 64, 32, 16, 8, 4, 2, 1, 0.5, 0.25, 0.125, […] of a given compound.
(§6) Inoculant suspensions (0.5 μL) were added to the 12 wells of each column. The plates were then covered and incubated at 37° C. overnight for 18 hours.
(§7) For each organism the MIC was determined by identifying the transparent well with the lowest test compound concentration.
(§8) KPC-2 and KPC-3 (Class A, Group 2f, carbapenemases);
(§9) The gene sequence for each beta-lactamase enzyme was synthesized and inserted into the pBC-SK(+) plasmid by GenScript, a commercial service. E. coli J53 was transformed with each plasmid via electroporation and resistant transformants were selected on agar plates containing 50 micrograms/mL ampicillin. The selected transformants were stored at −80 degrees C. in 20% glycerol.

[2] = system: Isogenic E. coli J58 strain carrying KPC-2; details: for MIC: Escherichia coli, 18 h, read-out: Mimimum Inhibitory Concentrations, KPC-2
Experimental: as §1, §2, §3, §4, §5, §6, §7, §8, §9

[3] = system: E. coli J53 Alone; details: for MIC: Escherichia coli, J53ALONE, 18 h, read-out: Mimimum Inhibitory Concentrations, J53 Alone; for Mimimum Inhibitory Concentrations, J53 Alone: CAMH broth, 20 μM Apo-Transferrin, 37° C., 18 hours
Experimental: as §1, §2, §3, §4, §5, §6, §7, §9

[4] = system: Isogenic E. coli J58 strain carrying DHA-1; details: for MIC: Escherichia coli, 18 h, read-out: Mimimum Inhibitory Concentrations, DHA-1
Experimental: as §1, §2, §3, §4, §5, §6, §7, §9

[5] = system: Isogenic E. coli J58 strain carrying VIM-2; details: for MIC: Escherichia coli, 18 h, read-out: Mimimum Inhibitory Concentrations, VIM-2
Experimental: as §1, §2, §3, §4, §5, §6, §7
VIM-2 (Group 3a carbapenemase, metallo-beta-lactamase); and
as §9

[6] = system: Isogenic E. coli J58 strain carrying SHV-1; details: for MIC: Escherichia coli, 18 h, read-out: Mimimum Inhibitory Concentrations, SHV-1
Experimental: as §1, §2, §3, §4, §5, §6, §7
SHV-1 (Class A, Group 2b beta-lactamase, hydrolyzes penicillins and early cephalosporins);
as §9

[7] = system: Isogenic E. coli J58 strain carrying IMP-1; details: for MIC: Escherichia coli, 18 h, read-out: Mimimum Inhibitory Concentrations, IMP-1; for MICs for an E. coli strain carrying the gene for carbapenemase IMP-1, in words: review of Tables 4-1 and 4-2
Experimental: as §1, §2, §3, §4, §5, §6, §7
IMP-1 (Group 3a carbapenemase, metallo-beta-Lactamase).
as §9

[8] = system: Isogenic E. coli J58 strain carrying TEM-26; details: for MIC: Escherichia coli, 18 h, read-out: Mimimum Inhibitory Concentrations, TEM-26
Experimental: as §1, §2, §3, §4, §5, §6, §7
TEM-26 (Group 2be beta-lactamase, hydrolyzes extended spectrum cephalosporins and monobactams), [25];
as §9

[9] = system: Isogenic E. coli J58 strain carrying NDM-1; details: for MIC: Escherichia coli, 18 h, read-out: Mimimum Inhibitory Concentrations, NDM-1
Experimental: as §1, §2, §3, §4, §5, §6, §7
NDM-1 (Group 3a carbapenemase, broad spectrum divalent Zn^++ metallo-Beta-Lactamase);
as §9

[10] = system: Isogenic E. coli J58 strain carrying CTX-M-14; details: for MIC: Escherichia coli, 18 h, read-out: Mimimum Inhibitory Concentrations, CTX-M-14
Experimental: as §1, §2, §3, §4, §5, §6, §7
(§10) CTX-M-14 and CTX-M-15 (Class A, Group 2be beta-lactamases, hydrolyzes extended spectrum cephalosporins and monobactams);
as §9

[11] = system: Isogenic E. coli J58 strain carrying CTX-M-15; details: for MIC: Escherichia coli, 18 h, read-out: Mimimum Inhibitory Concentrations, CTX-M-15
Experimental: as §1, §2, §3, §4, §5, §6, §7, §10, §9

## CC(C)(O/N=C(\C(=O)N[C@@H]1C(=O)N2C(C(=O)O)=C(C=Cc3ccc(C[N+](C)(C)CCc4ccc(O)c(O)c4)cc3)CS[C@H]12)c1csc(N)n1)C(=O)O (mixture of isomers) [Compound 440, N-(4-((E/Z)-2-((6R,7R)-7-((Z)-2-(2-aminothiazol-4-yl)-2-(((2-carboxypropan-2-yl)oxy)imino)acetamido)-2-carboxy-8-oxo-5-thia-1-azabicyclo[4.2.0]oct-2-en-3-yl)vinyl)benzyl)-2-(3,4-dihydroxyphenyl)-N,N-dimethylethan-1-aminium]
[1]
  MIC: 4 µg/mL
[2]
  MIC: 16 µg/mL
[3]
  MIC: 0.25 µg/mL
[3]; Table 4-2
  Mimimum Inhibitory Concentrations, J53 Alone: 0.25 microgram/mL
[4]
  MIC: 0.25 µg/mL
[5]
  MIC: 0.25 µg/mL
[6]
  MIC: 1 µg/mL
[7]
  MIC: 0.13 µg/mL
  MICs for an E. coli strain carrying the gene for carbapenemase IMP-1, in words: low microgram/mL MICs
[8]
  MIC: 1 µg/mL
[9]
  MIC: > 64 µg/mL
[10]
  MIC: 2 µg/mL
[11]
  MIC: 0.25 µg/mL

## CC(C)(O/N=C(\C(=O)N[C@@H]1C(=O)N2C(C(=O)O)=C(/C=C/c3ccc(C[n+]4ccn(-c5ccc(O)c(O)c5)c4)cc3)CS[C@H]12)c1csc(N)n1)C(=O)O [Compound 414, 3-(4-((E)-2-((6R,7R)-7-((Z)-2-(2-aminothiazol-4-yl)-2-(((2-carboxypropan-2-yl)oxy)imino)acetamido)-2-carboxy-8-oxo-5-thia-1-azabicyclo[4.2.0]oct-2-en-3-yl)vinyl)benzyl)-1-(3,4-dihydroxyphenyl)-1H-imidazol-3-ium]
[1]
  MIC: 4 µg/mL
[2]
  MIC: 8 µg/mL
[3]
  MIC: 0.25 µg/mL
[3]; Table 4-2
  Mimimum Inhibitory Concentrations, J53 Alone: 0.25 microgram/mL
[4]
  MIC: 0.5 µg/mL
[5]
  MIC: 1 µg/mL
[6]
  MIC: 1 µg/mL
[7]
  MIC: 8 µg/mL
[8]
  MIC: 1 µg/mL
[9]
  MIC: > 64 µg/mL
[10]
  MIC: 2 µg/mL
[11]
  MIC: 1 µg/mL

## CC(C)(O/N=C(\C(=O)N[C@@H]1C(=O)N2C(C(=O)O)=C(C=Cc3ccc(C[N+]4(C)CCc5cc(O)c(O)cc5C4)cc3)CS[C@H]12)c1nsc(N)n1)C(=O)O (mixture of isomers) [Compound 437, 2-(4-((E/Z)-2-((6R,7R)-7-((Z)-2-(5-amino-1,2,4-thiadiazol-3-yl)-2-(((2-carboxypropan-2-yl)oxy)imino)acetamido)-2-carboxy-8-oxo-5-thia-1-azabicyclo[4.2.0]oct-2-en-3-yl)vinyl)benzyl)-6,7-dihydroxy-2-methyl-1,2,3,4-tetrahydroisoquinolin-2-ium]
[1]; isogenic E. coli strain, KPC-3, CAMH broth, 20 μM Apo-Transferrin, 37° C., 18 hours
  Mimimum Inhibitory Concentrations, KPC-3: 2 microgram/mL
[2]; isogenic E. coli strain, KPC-2, CAMH broth, 20 μM Apo-Transferrin, 37° C., 18 hours
  Mimimum Inhibitory Concentrations, KPC-2: 16 microgram/mL
[3]; Table 4-1
  Mimimum Inhibitory Concentrations, J53 Alone: 0.25 microgram/mL
[3]; Table 4-2
  Mimimum Inhibitory Concentrations, J53 Alone: 0.25 microgram/mL
[4]; isogenic E. coli strain, DHA-1, CAMH broth, 20 μM Apo-Transferrin, 37° C., 18 hours
  Mimimum Inhibitory Concentrations, DHA-1: 0.5 microgram/mL
[5]; isogenic E. coli strain, VIM-2, CAMH broth, 20 μM Apo-Transferrin, 37° C., 18 hours
  Mimimum Inhibitory Concentrations, VIM-2: 1 microgram/mL
[6]; isogenic E. coli strain, SHV-1, CAMH broth, 20 μM Apo-Transferrin, 37° C., 18 hours
  Mimimum Inhibitory Concentrations, SHV-1: 2 microgram/mL
[7]; isogenic E. coli strain, IMP-1, CAMH broth, 20 μM Apo-Transferrin, 37° C., 18 hours
  Mimimum Inhibitory Concentrations, IMP-1: 0.13 microgram/mL
[7]
  MICs for an E. coli strain carrying the gene for carbapenemase IMP-1, in words: low microgram/mL MICs
[8]; isogenic E. coli strain, TEM-26, CAMH broth, 20 μM Apo-Transferrin, 37° C., 18 hours
  Mimimum Inhibitory Concentrations, TEM-26: 1 microgram/mL
[9]; isogenic E. coli strain, NDM-1, CAMH broth, 20 μM Apo-Transferrin, 37° C., 18 hours
  Mimimum Inhibitory Concentrations, NDM-1: >64 microgram/mL
[10]; isogenic E. coli strain, CTX-M-14, CAMH broth, 20 μM Apo-Transferrin, 37° C., 18 hours
  Mimimum Inhibitory Concentrations, CTX-M-14: 4 microgram/mL
[11]; isogenic E. coli strain, CTX-M-15, CAMH broth, 20 μM Apo-Transferrin, 37° C., 18 hours
  Mimimum Inhibitory Concentrations, CTX-M-15: 0.5 microgram/mL

## CC(C)(O/N=C(\C(=O)N[C@@H]1C(=O)N2C(C(=O)O)=C(C=Cc3ccc(C[N+]4(C)CCc5c(ccc(O)c5O)C4)cc3)CS[C@H]12)c1csc(N)n1)C(=O)O (mixture of isomers) [Compound 441, 2-(4-((E/Z)-2-((6R,7R)-7-((Z)-2-(2-aminothiazol-4-yl)-2-(((2-carboxypropan-2-yl)oxy)imino)acetamido)-2-carboxy-8-oxo-5-thia-1-azabicyclo[4.2.0]oct-2-en-3-yl)vinyl)benzyl)-5,6-dihydroxy-2-methyl-1,2,3,4-tetrahydroisoquinolin-2-ium]
[1]
  MIC: 1 µg/mL
[2]
  MIC: 4 µg/mL
[3]
  MIC: 0.25 µg/mL
[3]; Table 4-2
  Mimimum Inhibitory Concentrations, J53 Alone: 0.25 microgram/mL
[4]
  MIC: 0.5 µg/mL
[5]
  MIC: 0.25 µg/mL
[6]
  MIC: 1 µg/mL
[7]
  MIC: 1 µg/mL
[8]
  MIC: 1 µg/mL
[9]
  MIC: > 64 µg/mL
[10]
  MIC: 1 µg/mL
[11]
  MIC: 0.5 µg/mL

## Cn1c[n+](Cc2ccc(C=CC3=C(C(=O)O)N4C(=O)[C@@H](NC(=O)/C(=N\OC(C)(C)C(=O)O)c5csc(N)n5)[C@H]4SC3)cc2)c2cc(O)c(O)cc21 (mixture of isomers) [Compound 415, 3-(4-((E/Z)-2-((6R,7R)-7-((Z)-2-(2-aminothiazol-4-yl)-2-(((2-carboxypropan-2-yl)oxy)imino)acetamido)-2-carboxy-8-oxo-5-thia-1-azabicyclo[4.2.0]oct-2-en-3-yl)vinyl)benzyl)-5,6-dihydroxy-1-methyl-1H-benzo[d]imidazol-3-ium]
[1]
  MIC: 8 µg/mL
[2]
  MIC: 16 µg/mL
[3]
  MIC: 0.5 µg/mL
[3]; Table 4-2
  Mimimum Inhibitory Concentrations, J53 Alone: 0.5 microgram/mL
[4]
  MIC: 0.5 µg/mL
[5]
  MIC: 1 µg/mL
[6]
  MIC: 1 µg/mL
[7]
  MIC: 16 µg/mL
[8]
  MIC: 1 µg/mL
[9]
  MIC: > 64 µg/mL
[10]
  MIC: 2 µg/mL
[11]
  MIC: 1 µg/mL
